Reference: patent publication US20090099195A1 (ASTRAZENECA AB, priority 2007, published 2009)

Molecular target: T1, hP2X3 (human Purinergic P2X receptors subtype 3), clone B (Homo sapiens, UniProt P56373)
T1 sequence (P56373 1-397): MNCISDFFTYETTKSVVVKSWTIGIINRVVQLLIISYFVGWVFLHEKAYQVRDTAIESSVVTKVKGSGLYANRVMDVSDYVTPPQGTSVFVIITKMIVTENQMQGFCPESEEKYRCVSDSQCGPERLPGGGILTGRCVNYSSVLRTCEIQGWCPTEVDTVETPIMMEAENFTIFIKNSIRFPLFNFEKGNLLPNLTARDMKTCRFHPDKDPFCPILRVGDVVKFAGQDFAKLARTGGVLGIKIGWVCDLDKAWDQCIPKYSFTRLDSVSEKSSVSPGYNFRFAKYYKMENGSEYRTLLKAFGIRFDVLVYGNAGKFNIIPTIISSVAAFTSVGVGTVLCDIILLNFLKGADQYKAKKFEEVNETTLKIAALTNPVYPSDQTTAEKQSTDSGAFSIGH
Assay: hP2X3 FLIPR calcium (Fluo-4) antagonist assay, clone B
Details: Human P2X3 FLIPR Clone B IC50 (nM), RLE cells expressing hP2X3 clone B (NM_002559); agonist 500 nM α,β-methylene-ATP

Row | Compound | IC50 [nM]
1 | CC(=O)N1CCN(c2nc(NCc3cc(-c4ccccc4)n(C)n3)c3c(n2)C(=O)N(C(C)C)C3)CC1 [Example 153, 4-(4-acetylpiperazin-1-yl)-2-[(1-methyl-5-phenyl-pyrazol-3-yl)methylamino]-8-propan-2-yl-3,5,8-triazabicyclo[4.3.0]nona-1,3,5-trien-7-one] | 120
2 | CC(=O)N1CCN(c2nc(NCc3cc(-c4ccccc4)nn3C)c3c(n2)C(=O)N(C(C)C)C3)CC1 [Example 154, 4-(4-acetylpiperazin-1-yl)-2-[(2-methyl-5-phenyl-pyrazol-3-yl)methylamino]-8-propan-2-yl-3,5,8-triazabicyclo[4.3.0]nona-1,3,5-trien-7-one] | 160
3 | CC(=O)N1CCN(c2nc(NCc3cn4ccccc4n3)c3c(n2)C(=O)N(C(C)C)C3)CC1 [Example 155, 4-(4-acetylpiperazin-1-yl)-2-(1,7-diazabicyclo[4.3.0]nona-2,4,6,8-tetraen-8-ylmethylamino)-8-propan-2-yl-3,5,8-triazabicyclo[4.3.0]nona-1,3,5-trien-7-one] | 500
4 | CCOc1cccc([C@@H](C)Nc2nc(N3CCN(C(C)=O)CC3)nc3c2CN(C(C)C)C3=O)c1 [Example 156, (R)-2-(4-acetylpiperazin-1-yl)-4-(1-(3-ethoxyphenyl)ethylamino)-6-isopropyl-5H-pyrrolo[3,4-d]pyrimidin-7(6H)-one] | 830
5 | CCOc1ccc(C(C)N(C)c2nc(N3CCN(C(C)=O)CC3)nc3c2CN(C(C)C)C3=O)cc1 (centres unmarked) [Example 157, 2-(4-acetylpiperazin-1-yl)-4-((1-(4-ethoxyphenyl)ethyl)(methyl)amino)-6-isopropyl-5H-pyrrolo[3,4-d]pyrimidin-7(6H)-one] | 390
6 | CC(=O)N1CCN(c2nc(N[C@H](C)c3ccc4c(c3)CCO4)c3c(n2)C(=O)N(C(C)C)C3)CC1 [Example 160, (R)-2-(4-acetylpiperazin-1-yl)-4-(1-(2,3-dihydrobenzofuran-5-yl)ethylamino)-6-isopropyl-5H-pyrrolo[3,4-d]pyrimidin-7(6H)-one] | 320
7 | CC(=O)N1CCN(c2nc(N[C@H](C)c3ccc(C(C)(C)C#N)cc3)c3c(n2)C(=O)N(C(C)C)C3)CC1 [Example 161, (R)-2-(4-(1-(2-(4-acetylpiperazin-1-yl)-6-isopropyl-7-oxo-6,7-dihydro-5H-pyrrolo[3,4-d]pyrimidin-4-ylamino)ethyl)phenyl)-2-methylpropanenitrile] | 720
8 | CCOc1ccc(CN(CC2CC2)c2nc(N3CCN(C(C)=O)CC3)nc3c2CN(C(C)C)C3=O)cc1 [Example 162, 2-(4-acetylpiperazin-1-yl)-4-((cyclopropylmethyl)(4-ethoxybenzyl)amino)-6-isopropyl-5H-pyrrolo[3,4-d]pyrimidin-7(6H)-one] | 950
9 | CC(=O)N1CCN(c2nc(NC(C)c3ccc(C(C)(C)C#N)c(F)c3)c3c(n2)C(=O)N(C(C)C)C3)CC1 (centres unmarked) [Example 163, 2-(4-(1-(2-(4-acetylpiperazin-1-yl)-6-isopropyl-7-oxo-6,7-dihydro-5H-pyrrolo[3,4-d]pyrimidin-4-ylamino)ethyl)-2-fluorophenyl)-2-methylpropanenitrile] | 1700
10 | CCOc1ccc([C@@H](C)Nc2nc(N3CCN(C(C)=O)CC3)nc3c2CN(C(C)C)C3=O)cc1C [Example 167, (R)-2-(4-acetylpiperazin-1-yl)-4-(1-(4-ethoxy-3-methylphenyl)ethylamino)-6-isopropyl-5H-pyrrolo[3,4-d]pyrimidin-7(6H)-one] | 65
11 | CCOc1ccc([C@@H](C)Nc2nc(N3CCN(C(C)=O)CC3)nc3c2CN(C(C)C)C3=O)c(C)c1 [Example 168, (R)-2-(4-acetylpiperazin-1-yl)-4-(1-(4-ethoxy-2-methylphenyl)ethylamino)-6-isopropyl-5H-pyrrolo[3,4-d]pyrimidin-7(6H)-one] | 80
12 | CC(=O)N1CCN(c2nc(N[C@H](C)c3ccc4c(c3)CCC(C)(C)O4)c3c(n2)C(=O)N(C(C)C)C3)CC1 [Example 169, (R)-2-(4-acetylpiperazin-1-yl)-4-(1-(2,2-dimethylchroman-6-yl)ethylamino)-6-isopropyl-5H-pyrrolo[3,4-d]pyrimidin-7(6H)-one] | 51
13 | CC(=O)N1CCN(c2nc(N[C@H](C)c3ccc(C)c(C)c3)c3c(n2)C(=O)N(C(C)C)C3)CC1 [Example 170, (R)-2-(4-acetylpiperazin-1-yl)-4-(1-(3,4-dimethylphenyl)ethylamino)-6-isopropyl-5H-pyrrolo[3,4-d]pyrimidin-7(6H)-one] | 96
14 | CC(=O)N1CCN(c2nc(N[C@H](C)c3ccc(Cl)c(C(F)(F)F)c3)c3c(n2)C(=O)N(C(C)C)C3)CC1 [Example 171, (R)-2-(4-acetylpiperazin-1-yl)-4-(1-(4-chloro-3-(trifluoromethyl)phenyl)ethylamino)-6-isopropyl-5H-pyrrolo[3,4-d]pyrimidin-7(6H)-one] | 290
15 | CC(=O)N1CCN(c2nc(N[C@H](C)c3ccc4c(c3)CCC4)c3c(n2)C(=O)N(C(C)C)C3)CC1 [Example 172, (R)-2-(4-acetylpiperazin-1-yl)-4-(1-(2,3-dihydro-1H-inden-5-yl)ethylamino)-6-isopropyl-5H-pyrrolo[3,4-d]pyrimidin-7(6H)-one] | 44
16 | CCOc1ccccc1[C@@H](C)Nc1nc(N2CCN(C(C)=O)CC2)nc2c1CN(C(C)C)C2=O [Example 173, (R)-2-(4-acetylpiperazin-1-yl)-4-(1-(2-ethoxyphenyl)ethylamino)-6-isopropyl-5H-pyrrolo[3,4-d]pyrimidin-7(6H)-one] | 5400
17 | CCOc1cc([C@@H](C)Nc2nc(N3CCN(C(C)=O)CC3)nc3c2CN(C(C)C)C3=O)ccc1C [Example 174, (R)-2-(4-acetylpiperazin-1-yl)-4-(1-(3-ethoxy-4-methylphenyl)ethylamino)-6-isopropyl-5H-pyrrolo[3,4-d]pyrimidin-7(6H)-one] | 600
18 | CC(=O)N1CCN(c2nc(N[C@H](C)c3ccc(OC(C)C)cc3)c3c(n2)C(=O)N(C(C)C)C3)CC1 [Example 176, (R)-2-(4-acetylpiperazin-1-yl)-4-(1-(4-isopropoxyphenyl)ethylamino)-6-isopropyl-5H-pyrrolo[3,4-d]pyrimidin-7(6H)-one] | 80
19 | COc1ccccc1CC(C)(C)Nc1nc(N2CCN(C(C)=O)CC2)nc2c1CN(C(C)C)C2=O [Example 195, 2-(4-acetylpiperazin-1-yl)-6-isopropyl-4-(1-(2-methoxyphenyl)-2-methylpropan-2-ylamino)-5H-pyrrolo[3,4-d]pyrimidin-7(6H)-one] | 18000
20 | CC(=O)N1CCN(c2nc(NC(C)(C)Cc3ccccc3C)c3c(n2)C(=O)N(C(C)C)C3)CC1 [Example 197, 2-(4-acetylpiperazin-1-yl)-6-isopropyl-4-(2-methyl-1-o-tolylpropan-2-ylamino)-5H-pyrrolo[3,4-d]pyrimidin-7(6H)-one] | 1900
21 | CC(=O)N1CCN(c2nc(NCC3OCCc4ccccc43)c3c(n2)C(=O)N(C(C)C)C3)CC1 (centres unmarked) [Example 205, 2-(4-acetylpiperazin-1-yl)-4-(isochoman-1-ylmethylamino)-6-isopropyl-5H-pyrrolo[3,4-d]pyrimidin-7(6H)-one] | 5300
22 | CC(C)N1Cc2c(NCc3cnc4ccccc4c3)nc(N3CCNC(=O)C3)nc2C1=O [Example 206, 6-isopropyl-2-(3-oxopiperazin-1-yl)-4-(quinolin-3-ylmethylamino)-5H-pyrrolo[3,4-d]pyrimidin-7(6H)-one] | 3200
23 | CC(=O)NC1CCN(c2nc(NCc3cnc4ccccc4c3)c3c(n2)C(=O)N(C(C)C)C3)C1 (centres unmarked) [Example 207, N-(1-(6-isopropyl-7-oxo-4-(quinolin-3-ylmethylamino)-6,7-dihydro-5H-pyrrolo[3,4-d]pyrimidin-2-yl)pyrrolidin-3-yl)acetamide] | 7100
24 | CC(C)N1Cc2c(NCc3cnc4ccccc4c3)nc(N3CCC(C(N)=O)CC3)nc2C1=O [Example 209, 1-(6-isopropyl-7-oxo-4-(quinolin-3-ylmethylamino)-6,7-dihydro-5H-pyrrolo[3,4-d]pyrimidin-2-yl)piperidine-4-carboxamide] | 2800
25 | CC(C)N1Cc2c(NCc3cnc4ccccc4c3)nc(N3CCN(C)C(=O)C3)nc2C1=O [Example 210, 6-isopropyl-2-(4-methyl-3-oxopiperazin-1-yl)-4-(quinolin-3-ylmethylamino)-5H-pyrrolo[3,4-d]pyrimidin-7(6H)-one] | 320
26 | CC(C)N1Cc2c(NCc3cnc4ccccc4c3)nc(N3CCOCC3)nc2C1=O [Example 211, 6-isopropyl-2-morpholino-4-(quinolin-3-ylmethylamino)-5H-pyrrolo[3,4-d]pyrimidin-7(6H)-one] | 5100
27 | CC(C)N1Cc2c(NCc3cnc4ccccc4c3)nc(N3CCCC3CN3CCOCC3)nc2C1=O (centres unmarked) [Example 212, 6-isopropyl-2-[2-(morpholinomethyl)pyrrolidin-1-yl]-4-(3-quinolylmethylamino)-5H-pyrrolo[3,4-d]pyrimidin-7-one] | 4600
28 | CC(C)N1Cc2c(NCc3cnc4ccccc4c3)nc(N3CCC(N(C)C)C3)nc2C1=O (centres unmarked) [Example 213, 2-(3-dimethylaminopyrrolidin-1-yl)-6-isopropyl-4-(3-quinolylmethylamino)-5H-pyrrolo[3,4-d]pyrimidin-7-one] | 1100
29 | CC(C)N1Cc2c(NCc3cnc4ccccc4c3)nc(NC3CN4CCC3CC4)nc2C1=O (centres unmarked) [Example 214, 6-isopropyl-4-(3-quinolylmethylamino)-2-(quinuclidin-3-ylamino)-5H-pyrrolo[3,4-d]pyrimidin-7-one] | 2300
